Reference: ChEMBL document CHEMBL6092168, “Identification of novel indolinone derivatives as CTSC inhibitors to treat inflammatory bowel disease by modulating inflammatory factors” (Eur J Med Chem, 2024)
The source made the active and inactive calls. No cut-off for these calls is given here.

Experiments:
Mus musculus [1] = test: Anti-inflammatory activity in DSS-induced ulcerative colitis male C57BL/6 mouse model assessed as reduction in proteinase 3 level in serum at 60 mg/kg administered via gavage for 10 days relative to control; assay type: functional; design: scale not given: the % may be the effect or the level left
Mus musculus [2] = test: Anti-inflammatory activity in DSS-induced ulcerative colitis male C57BL/6 mouse model assessed as reduction in IL-1 beta expression in colon administered via gavage for 10 days by ELISA; assay type: functional, organism-based; settings: dose 15-60 mg/kg, time 10.0 day
[3] = Acute toxicity in ICR mouse assessed as heart pathological change at 1500 mg/kg, po administered daily for 7 days by H and E staining based analysis; assay type: organism-based; settings: in vivo, 168 h, time 7 day
Mus musculus [4] = test: Anti-inflammatory activity in DSS-induced ulcerative colitis male C57BL/6 mouse model assessed as reduction in inflammatory cell infiltration in colon at 60 mg/kg administered via gavage for 10 days by H and E staining based analysis; assay type: functional, organism-based; settings: time 10.0 day
[5] = molecular target: T1, Myeloblastin (Mus musculus) (UniProt Q61096); test: In vivo inhibition of proteinase 3 in C57BL/6 mouse assessed as reduction in proteinase 3 activity in bone marrow administered orally once daily for 6 days by fluorescence based microplate reader; assay type: functional, organism-based; settings: dose 5-30 mg/kg, route po, time 6.0 day
T1 sequence (whole entry): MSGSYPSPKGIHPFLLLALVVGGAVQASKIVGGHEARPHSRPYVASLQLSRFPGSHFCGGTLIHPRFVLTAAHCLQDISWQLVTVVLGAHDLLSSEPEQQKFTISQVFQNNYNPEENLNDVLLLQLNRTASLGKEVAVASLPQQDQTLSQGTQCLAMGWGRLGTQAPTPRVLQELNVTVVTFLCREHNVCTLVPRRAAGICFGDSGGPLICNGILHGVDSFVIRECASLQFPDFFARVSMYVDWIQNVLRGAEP

Mus musculus [6] = test: Anti-inflammatory activity in DSS-induced ulcerative colitis male C57BL/6 mouse model assessed as reduction in neutrophil elastase level in serum at 15 to 30 mg/kg administered via gavage for 10 days; assay type: functional, organism-based; settings: dose 15-30 mg/kg, time 10.0 day
[7] = molecular target: T1, Myeloblastin (Mus musculus); test: Induction of proteinase 3 degradation in C57BL/6 mouse bone marrow cells assessed as residual activity at 10 uM incubated for 48 hrs by Western blot analysis relative to control; assay type: cell-based; settings: Bone marrow cell
Mus musculus [8] = test: Anti-inflammatory activity in DSS-induced ulcerative colitis male C57BL/6 mouse model assessed as increase in colon length administered via gavage for 10 days; assay type: functional, organism-based; settings: dose 15-60 mg/kg, time 10.0 day
[9] = molecular target: Voltage-gated inwardly rectifying potassium channel KCNH2 (Homo sapiens, UniProt Q12809); test: Inhibition of hERG; assay type: toxicity
Chain of Voltage-gated inwardly rectifying potassium channel KCNH2 (Q12809 whole entry): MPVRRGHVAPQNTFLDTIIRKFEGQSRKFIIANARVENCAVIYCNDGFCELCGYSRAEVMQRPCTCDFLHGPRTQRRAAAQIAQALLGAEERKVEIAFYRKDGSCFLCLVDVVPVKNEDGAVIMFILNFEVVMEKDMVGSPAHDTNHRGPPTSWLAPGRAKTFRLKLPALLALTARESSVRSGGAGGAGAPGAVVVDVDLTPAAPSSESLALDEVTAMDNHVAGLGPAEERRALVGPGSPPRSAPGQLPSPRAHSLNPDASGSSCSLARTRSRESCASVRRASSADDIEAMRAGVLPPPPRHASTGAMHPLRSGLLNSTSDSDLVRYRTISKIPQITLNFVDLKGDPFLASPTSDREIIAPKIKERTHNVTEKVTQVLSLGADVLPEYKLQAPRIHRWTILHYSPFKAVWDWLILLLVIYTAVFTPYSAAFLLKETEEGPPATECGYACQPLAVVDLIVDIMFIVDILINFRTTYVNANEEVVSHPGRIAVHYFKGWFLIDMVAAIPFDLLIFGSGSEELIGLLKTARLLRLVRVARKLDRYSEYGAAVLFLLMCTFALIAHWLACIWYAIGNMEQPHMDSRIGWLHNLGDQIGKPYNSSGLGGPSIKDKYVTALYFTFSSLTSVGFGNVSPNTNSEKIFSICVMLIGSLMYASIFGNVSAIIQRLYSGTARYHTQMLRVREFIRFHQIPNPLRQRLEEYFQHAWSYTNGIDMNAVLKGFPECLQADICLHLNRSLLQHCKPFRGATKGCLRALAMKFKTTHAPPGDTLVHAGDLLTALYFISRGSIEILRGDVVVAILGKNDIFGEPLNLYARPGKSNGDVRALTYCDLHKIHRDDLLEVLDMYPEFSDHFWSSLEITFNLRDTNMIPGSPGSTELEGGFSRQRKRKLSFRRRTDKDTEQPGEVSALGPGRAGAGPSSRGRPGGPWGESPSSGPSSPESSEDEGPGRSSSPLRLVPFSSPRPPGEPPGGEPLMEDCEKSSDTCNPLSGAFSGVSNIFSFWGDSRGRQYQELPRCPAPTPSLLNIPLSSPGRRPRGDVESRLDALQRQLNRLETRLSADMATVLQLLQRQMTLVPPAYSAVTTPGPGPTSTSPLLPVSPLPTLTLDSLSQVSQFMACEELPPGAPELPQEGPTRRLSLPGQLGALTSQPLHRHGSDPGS

[10] = molecular target: T2, Dipeptidyl peptidase 1 (Mus musculus) (UniProt P97821); test: In vivo inhibition of Cathepsin C in C57BL/6 mouse assessed as reduction in cathepsin C activity in blood at 30 mg/kg, po administered once daily for 6 days by fluorescence based microplate reader relative to control; assay type: functional, organism-based; settings: time 6.0 day
T2 sequence (whole entry): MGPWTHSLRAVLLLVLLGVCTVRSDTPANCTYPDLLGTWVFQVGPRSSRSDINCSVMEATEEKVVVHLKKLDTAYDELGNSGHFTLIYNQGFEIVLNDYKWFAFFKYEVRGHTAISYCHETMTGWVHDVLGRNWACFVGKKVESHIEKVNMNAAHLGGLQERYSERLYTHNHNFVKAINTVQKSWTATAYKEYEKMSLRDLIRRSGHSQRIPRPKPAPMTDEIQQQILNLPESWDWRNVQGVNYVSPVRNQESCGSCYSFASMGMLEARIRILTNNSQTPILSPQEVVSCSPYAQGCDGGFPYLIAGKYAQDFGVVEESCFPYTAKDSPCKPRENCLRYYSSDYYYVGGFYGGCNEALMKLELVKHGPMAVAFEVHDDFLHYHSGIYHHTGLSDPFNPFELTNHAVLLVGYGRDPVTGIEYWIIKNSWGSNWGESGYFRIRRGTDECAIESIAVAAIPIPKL

[11] = molecular target: T3, Neutrophil elastase (Mus musculus) (UniProt Q3UP87); test: Induction of neutrophil elastase degradation in C57BL/6 mouse bone marrow cells assessed as remaining activity at 10 uM incubated for 12 hrs by Western blot analysis relative to control; assay type: cell-based; settings: Bone marrow cell
T3 sequence (whole entry): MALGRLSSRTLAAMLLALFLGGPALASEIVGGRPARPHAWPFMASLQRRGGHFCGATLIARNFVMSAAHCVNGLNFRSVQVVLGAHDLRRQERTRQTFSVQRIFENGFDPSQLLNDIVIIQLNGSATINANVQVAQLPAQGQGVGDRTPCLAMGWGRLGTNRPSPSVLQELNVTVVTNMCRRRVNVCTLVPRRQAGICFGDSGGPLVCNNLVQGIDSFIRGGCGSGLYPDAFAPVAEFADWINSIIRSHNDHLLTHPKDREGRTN

Mus musculus [12] = test: Anti-inflammatory activity in DSS-induced ulcerative colitis male C57BL/6 mouse model assessed as reduction in disease activity index (DAI) score at 60 mg/kg administered via gavage for 10 days; assay type: functional, organism-based; settings: time 10.0 day
[13] = molecular target: T1, Myeloblastin (Mus musculus); test: Induction of proteinase 3 degradation in C57BL/6 mouse bone marrow cells at 10 uM incubated for 24 hrs by Western blot analysis; assay type: cell-based; settings: Bone marrow cell
[14] = Half life in male Sprague-Dawley rat at 10 mg/kg, po measured at 5 to 1440 mins by LC-MS/MS analysis; assay type: ADME, organism-based; settings: in vivo, time 5-1440 min
[15] = Cmax in male Sprague-Dawley rat at 10 mg/kg, po measured at 5 to 1440 mins by LC-MS/MS analysis; assay type: ADME, organism-based; settings: in vivo, time 5-1440 min
Mus musculus [16] = test: Anti-inflammatory activity in DSS-induced ulcerative colitis male C57BL/6 mouse model assessed as reduction in GM-CSF expression in colon administered via gavage for 10 days by ELISA; assay type: functional, organism-based; settings: dose 15-60 mg/kg, time 10.0 day
RAW264.7 [17] = test: Anti-inflammatory activity in mouse RAW264.7 cells assessed as inhibition of LPS-induced NO production preincubated for 1 hr followed by LPS addition and measured after 24 hrs by Griess reagent based assay; assay type: functional, cell-based
[18] = molecular target: T3, Neutrophil elastase (Mus musculus); test: In vivo inhibition of neutrophil elastase in C57BL/6 mouse assessed as reduction in neutrophil elastase activity in blood administered orally once daily for 6 days by fluorescence based microplate reader; assay type: functional, organism-based; settings: dose 5-30 mg/kg, route po, time 6.0 day
[19] = Acute toxicity in ICR mouse assessed as kidney pathological change at 1500 mg/kg, po administered daily for 7 days by H and E staining based analysis; assay type: organism-based; settings: in vivo, 168 h, time 7 day
Mus musculus [20] = test: Anti-inflammatory activity in DSS-induced ulcerative colitis male C57BL/6 mouse model assessed as reduction in TNF-alpha expression in serum administered via gavage for 10 days by ELISA; assay type: functional, organism-based; settings: dose 15-60 mg/kg, time 10.0 day
RAW264.7 [21] = test: Anti-inflammatory activity in mouse RAW264.7 cells assessed as inhibition of LPS-induced IL-1beta production at 5 uM preincubated for 1 hr followed by LPS addition and measured after 24 hrs by ELISA relative to control; assay type: functional; design: scale not given: the % may be the effect or the level left; settings: time 25 hrs
[22] = molecular target: T2, Dipeptidyl peptidase 1 (Mus musculus); test: In vivo inhibition of Cathepsin C in C57BL/6 mouse assessed as reduction in cathepsin C activity in blood at 15 mg/kg, po administered once daily for 6 days by fluorescence based microplate reader relative to control; assay type: functional, organism-based; settings: time 6.0 day
[23] = molecular target: T1, Myeloblastin (Mus musculus); test: In vivo inhibition of proteinase 3 in C57BL/6 mouse assessed as reduction in proteinase 3 activity in blood at 30 mg/kg, po administered once daily for 6 days by fluorescence based microplate reader relative to control; assay type: functional, organism-based; settings: time 6.0 day

O=C1Nc2c(cccc2-c2ccc(NC3CCOCC3)cc2)/C1=C/c1ccnc2ccccc12
Activity (Mus musculus [1]; time 10 day): 54% | Activity (Mus musculus [1]; time 10.0 day): Active | Activity (Mus musculus [2]): Dose-dependent-effect; Significant Reduction Observed In High Dose Group | Activity [3]: Non-toxic | Activity (Mus musculus [4]): Active | inhibition [5]: Dose-dependent-effect | Activity (Mus musculus [6]): inactive | Activity [7]: 8.71% | Activity (Mus musculus [8]): Dose-dependent-effect | IC50 [9]: > 30 µM | inhibition [10]: 27.2% | Activity [11]: 75% | Activity (Mus musculus [12]): Active | Activity [13]: Active | half-life [14]: 1.76 h | Cmax [15]: 158 ng/mL | Activity (Mus musculus [16]): Dose-dependent-effect; Significant Reduction Observed In High Dose Group | IC50 (RAW264.7 [17]): 5.5 µM | inhibition [18]: Dose-dependent-effect | Activity [19]: Non-toxic | Activity (Mus musculus [20]): Dose-dependent-effect; Significant Reduction Observed In High Dose Group | Activity (RAW264.7 [21]): 90.5% | inhibition [22]: < 50% | inhibition [23]: 44.8%
